The record followed here is patent US20220081433A1, “CYCLIC SULFAMIDE COMPOUNDS FOR TREATMENT OF HBV” (Assembly Biosciences, Inc., priority 2018, published 2022).

A word on the EC50: it is the concentration that produces a half-maximal response.

In this test the test system is HBV. Description: Activity of test compounds on viral production from HepAD38 cells (viral load by qPCR of HBV core sequence). To be noted: Hepatitis B virus, 120 h, 5 days, supernatant HBV DNA by qPCR vs DMSO control, read-out: viral load lowering EC50 (Activity). It counts as cell-based. How it is done: Assay Measuring Activity of Test Compounds on Viral Production from HepAD38 Cells
HepAD38 cells grown in a T-150 flask (Corning, cat#: 430825) with Growth Medium (DMEM/F12 (1:1) (Hyclone, cat#: SH30023.02), 1× Pen/Strep (Invitrogen, cat#: 15140-122), 10% FBS (Tissue Culture Biologics, cat#: 101), 250 μg/mL G418 (Alfa Aesar, cat#: J62671), 1 μg/mL Tetracycline (Teknova, cat#: T3320)) were detached with 0.25% trypsin-EDTA (Invitrogen, cat#: 25200-056). Tetracycline-free treatment medium (15 mL DMEM/F12 (1:1) 1×Pen/step, with 2% FBS, Tet-system approved (Clontech, cat#: 631106) were then added to mix, transferred into a 50 ml conical tube (Falcon, cat#: 21008-918) and spun at 1300 rpm for 5 min. Pelleted cells were then re-suspended/washed with 50 mL of 1×DPBS (Invitrogen, cat#: 14190-136) 2 times and 50 mL treatment medium twice. HepAD38 cells were then re-suspended with 10 mL of treatment medium, syringed and counted. Wells of 96-well clear bottom TC plate (Corning, cat#: 3904) were seeded at 50,000 cells/well in 180 μL of treatment medium, and 20 μL of either 10% DMSO (Sigma, cat#: D4540) as controls or a 10× solution of test compounds in 10% DMSO in treatment media was added for a final compound concentration starting at 10 μM, and plates were incubated in 5% CO2 incubator at 37° C. for 5 days.
Subsequently viral load production was assayed by quantitative PCR (qPCR) of the HBV core sequence. PCR reaction mixture containing forward primers HBV-f 5′-CTGTGCCTTGGGTGGCTTT-3′ (IDT DNA), Reverse primers HBV-r 5′-[…]-3′ (IDT DNA), Fluorescent TaqMan™ Probes HBV-probe 5′-FAM/AGCTCCAAA/ZEN/[…]/3IABkFQ-3′ (IDT DNA), 10 μL/well of PerfeCTa® qPCR ToughMix® (Quanta Biosciences, Cat#: 95114-05K), and 6 μL/well of DEPC water (Alfa Aesar, cat#: J62087) was prepared. Four μL of supernatant was added to 16 μL of the reaction mixture in a qPCR plate (Applied Biosytems, Cat#: 4309849), sealed with a film (Applied Biosystems, Cat#: 4311971), centrifuged for a few seconds, and subsequently run on an Applied Biosystems VIIA7. The PCR mixture was incubated at 45° C. for 5 min, then 95° C. for 10 min, followed by 40 cycles of 10 seconds at 95° C. and 20 seconds at 60° C. Viral load was quantified against known HBV DNA standards by using ViiA™ 7 Software. Viral load in the supernatant from wells with treated cells were compared against viral load in supernatant from DMSO control wells (≥ 3 per plate). Cell viability assay was performed with CellTiter-Glo Luminescent Cell Viability Assay (Promega, cat#: G7573) with modification. Mixed appropriate amount of CellTiter-Glo (CTG) 1×DPBS in a 1:1 ratio, added 100 uL of the mixture to each well followed completely removal of all supernatant in each well without touching cell surface. Incubated the plate at room temperature for 10 min on an orbital shaker, and then read the plate with a plate reader (TECAN M1000 or Envision). EC50 or CC50 values were calculated through curve-fitting of the four-parameter nonlinear-logistic-regression model (GraphPad Prism or Dotmatics). CC50 values were all >10 μM.
Take `CN1CCN(c2cccc([C@H]3C[C@@H](C(=O)Nc4ccc(F)c(Cl)c4)N(C)S(=O)(=O)N3)c2)CC1` (single isomer, unassigned) [25-Isomer I]: the EC50 is less than 1000 nM. In the case of `CN1[C@@H](C(=O)Nc2ccc(F)c(Cl)c2)C[C@@H](c2cccc(-c3cccc(C(=O)O)c3)c2)NS1(=O)=O` (single isomer, unassigned) [19-Isomer II], the concentration for a half-maximal effect (EC50) fell in the range of 5000 to 10000 nM. Regarding `CN1[C@H](C(=O)Nc2ccc(F)c(Cl)c2)C[C@H](c2cccc(-n3ccnc3)c2)NS1(=O)=O` (single isomer, unassigned) [27-Isomer I], the half-maximal effective concentration (EC50) is less than 1000 nM. In the case of `CN1C(C(=O)Nc2ccc(F)c(Cl)c2)CC(c2n[nH]c(=O)n2-c2ccccc2)NS1(=O)=O` (stereo not shown) [Example 37, N-(3-Chloro-4-fluorophenyl)-2-methyl-5-(5-oxo-4-phenyl-4,5-dihydro-1H-1,2,4-triazol-3-yl)-1,2,6-thiadiazinane-3-carboxamide 1,1-dioxide], the concentration giving a half-maximal response (EC50) lay in the range of 1000 to 5000 nM. The figure for `CN1C(C(=O)Nc2ccc(F)c(Cl)c2)CC(c2cccc(-n3cccn3)c2)NS1(=O)=O` (stereo not shown) [Example 26, 5-(3-(1H-Pyrazol-1-yl)phenyl)-N-(3-chloro-4-fluorophenyl)-2-methyl-1,2,6-thiadiazinane-3-carboxamide 1,1-dioxide] is less than 1000 nM; for `Cc1cc(-c2cccc([C@H]3C[C@@H](C(=O)Nc4ccc(F)c(Cl)c4)N(C)S(=O)(=O)N3)c2)ccc1F` (single isomer, unassigned) [10-Isomer I] it is less than 1000 nM. Then `CN1C(C(=O)Nc2ccc(F)c(Cl)c2)CC(c2cccc(-c3ccccc3)c2)NS1(=O)=O` (stereo not shown) [Example 2, 5-([1,1-Biphenyl]-3-yl)-N-(3-chloro-4-fluorophenyl)-2-methyl-1,2,6-thiadiazinane-3-carboxamide 1,1-dioxide], with less than 1000 nM. The figure for `Cc1cc(-c2cccc([C@@H]3C[C@H](C(=O)Nc4ccc(F)c(Cl)c4)N(C)S(=O)(=O)N3)c2)ccc1F` (single isomer, unassigned) [10 Isomer II] is 5000 to 10000 nM. With `CN1C(C(=O)Nc2ccc(F)c(Cl)c2)CC(c2cccc(-c3ccccn3)c2)NS1(=O)=O` (stereo not shown) [Example 22, N-(3-Chloro-4-fluorophenyl)-2-methyl-5-(3-(pyridin-2-yl)phenyl)-1,2,6-thiadiazinane-3-carboxamide 1,1-dioxide], the EC50 was less than 1000 nM. Then `CC(C)c1ccc(-c2cccc([C@@H]3C[C@H](C(=O)Nc4ccc(F)c(Cl)c4)N(C)S(=O)(=O)N3)c2)cc1` (single isomer, unassigned) [7-Isomer II], with 1000 to 5000 nM; and `CN1C(C(=O)Nc2ccc(F)c(Cl)c2)CC(c2cccc(-c3ccc(Cl)c(Cl)c3)c2)NS1(=O)=O` (stereo not shown) [Example 9, N-(3-Chloro-4-fluorophenyl)-5-(3′,4′-dichloro-[1,1′-biphenyl]-3-yl)-2-methyl-1,2,6-thiadiazinane-3-carboxamide 1,1-dioxide], with 1000 to 5000 nM. For `Cc1cc(-c2cccc([C@@H]3C[C@H](C(=O)Nc4ccc(F)c(Cl)c4)N(C)S(=O)(=O)N3)c2)ccn1` (single isomer, unassigned) [3-Isomer II], the EC50 is 5000 to 10000 nM. `Cc1nn(C)cc1-c1cccc(C2CC(C(=O)Nc3ccc(F)c(Cl)c3)N(C)S(=O)(=O)N2)c1` (stereo not shown) [Example 16, N-(3-Chloro-4-fluorophenyl)-5-(3-(1,3-dimethyl-1H-pyrazol-4-yl)phenyl)-2-methyl-1,2,6-thiadiazinane-3-carboxamide 1,1-dioxide]: the EC50 is less than 1000 nM. Turning to `CN1[C@H](C(=O)Nc2ccc(F)c(Cl)c2)C[C@H](c2cccc(N3CCOCC3)c2)NS1(=O)=O` (single isomer, unassigned) [24-Isomer I], the half-maximal effective concentration (EC50) is less than 1000 nM. On to `CC(C)c1ccc(-c2cccc(C3CC(C(=O)Nc4ccc(F)c(Cl)c4)N(C)S(=O)(=O)N3)c2)cc1` (stereo not shown) [Example 7, N-(3-Chloro-4-fluorophenyl)-5-(4′-isopropyl-[1,1′-biphenyl]-3-yl)-2-methyl-1,2,6-thiadiazinane-3-carboxamide 1,1-dioxide], for which the half-maximal effective concentration (EC50) was less than 1000 nM.

With `CN1C(C(=O)Nc2ccc(F)c(Cl)c2)CC(c2cccc(-c3cnn(CC(=O)O)c3)c2)NS1(=O)=O` (stereo not shown) [Example 17, 2-(4-(3-(5-((3-Chloro-4-fluorophenyl)carbamoyl)-6-methyl-1,1-dioxido-1,2,6-thiadiazinan-3-yl)phenyl)-1H-pyrazol-1-yl)acetic acid], the EC50 was in the range of 5000 to 10000 nM. For the compound `Cc1cc(-c2cccc([C@H]3C[C@@H](C(=O)Nc4ccc(F)c(Cl)c4)N(C)S(=O)(=O)N3)c2)ccn1` (single isomer, unassigned) [3-Isomer I], the EC50 is less than 1000 nM. In the case of `CN1CC=C(c2cccc(C3CC(C(=O)Nc4ccc(F)c(Cl)c4)N(C)S(=O)(=O)N3)c2)CC1` (stereo not shown) [Example 18, N-(3-Chloro-4-fluorophenyl)-2-methyl-5-(3-(1-methyl-1,2,3,6-tetrahydropyridin-4-yl)phenyl)-1,2,6-thiadiazinane-3-carboxamide 1,1-dioxide], the concentration giving a half-maximal response (EC50) was less than 1000 nM. Consider `CN1[C@@H](C(=O)Nc2ccc(F)c(Cl)c2)C[C@@H](c2cccc(-c3ccc(C#N)cc3)c2)NS1(=O)=O` (single isomer, unassigned) [4-Isomer II], for which the EC50 was in the range of 1000 to 5000 nM.

Consider `CN1C(C(=O)Nc2ccc(F)c(Cl)c2)CC(c2n[nH]c(=O)n2Cc2ccccc2)NS1(=O)=O` (stereo not shown) [Example 38, 5-(4-Benzyl-5-oxo-4,5-dihydro-1H-1,2,4-triazol-3-yl)-N-(3-chloro-4-fluorophenyl)-2-methyl-1,2,6-thiadiazinane-3-carboxamide 1,1-dioxide], for which the EC50 fell in the range of 5000 to 10000 nM.

For the compound `CC(C)c1ccc(-c2cccc([C@H]3C[C@@H](C(=O)Nc4ccc(F)c(Cl)c4)N(C)S(=O)(=O)N3)c2)cc1` (single isomer, unassigned) [7-Isomer I], the EC50 was less than 1000 nM.

For `CN1C(C(=O)Nc2ccc(F)c(Cl)c2)CC(c2cccc(N3CCOCC3)c2)NS1(=O)=O` (stereo not shown) [Example 24, N-(3-Chloro-4-fluorophenyl)-2-methyl-5-(3-morpholinophenyl)-1,2,6-thiadiazinane-3-carboxamide 1,1-dioxide], the EC50 was less than 1000 nM.

As to `Cc1cc(-c2cccc(C3CC(C(=O)Nc4ccc(F)c(Cl)c4)N(C)S(=O)(=O)N3)c2)ccn1` (stereo not shown) [Example 3, N-(3-Chloro-4-fluorophenyl)-2-methyl-5-(3-(2-methylpyridin-4-yl)phenyl)-1,2,6-thiadiazinane-3-carboxamide 1,1-dioxide], the EC50 is less than 1000 nM. For `CN1[C@@H](C(=O)Nc2ccc(F)c(Cl)c2)C[C@@H](c2cccc(N3CCOCC3)c2)NS1(=O)=O` (single isomer, unassigned) [24-Isomer II], the EC50 is 5000 to 10000 nM. In the case of `CN1C(C(=O)Nc2ccc(F)c(Cl)c2)CC(c2cccc(C3CC3)c2)NS1(=O)=O` (stereo not shown) [Example 13, N-(3-Chloro-4-fluorophenyl)-5-(3-cyclopropylphenyl)-2-methyl-1,2,6-thiadiazinane-3-carboxamide 1,1-dioxide], the concentration giving a half-maximal response (EC50) is less than 1000 nM. In the case of `Cc1nnc(C2CC(C(=O)Nc3ccc(F)c(Cl)c3)N(C)S(=O)(=O)N2)o1` (stereo not shown) [Example 29, N-(3-Chloro-4-fluorophenyl)-2-methyl-5-(5-methyl-1,3,4-oxadiazol-2-yl)-1,2,6-thiadiazinane-3-carboxamide 1,1-dioxide], the concentration for a half-maximal effect (EC50) lay within 1000 to 5000 nM.

In the case of `CN1C(C(=O)Nc2ccc(F)c(Cl)c2)CC(c2cccc(-c3ccc(C(F)(F)F)cc3)c2)NS1(=O)=O` (stereo not shown) [Example 21, N-(3-Chloro-4-fluorophenyl)-2-methyl-5-(4′-(trifluoromethyl)-[1,1′-biphenyl]-3-yl)-1,2,6-thiadiazinane-3-carboxamide 1,1-dioxide], the EC50 was less than 1000 nM. Consider `CN1[C@H](C(=O)Nc2ccc(F)c(Cl)c2)C[C@H](c2cccc(-c3ccc(F)cc3Cl)c2)NS1(=O)=O` (single isomer, unassigned) [5-Isomer I], for which the EC50 is less than 1000 nM.
